The test system of data set [1] is Hep 3B2. Description: Antiproliferative activity against FGF19/FGFR4 dependent human Hep3B cells assessed as reduction in cell viability. Format: functional, cell-based.
Data set [2] has as its system Huh-7. Description: Antiproliferative activity against FGF19/FGFR4 dependent human Huh-7 cells assessed as reduction in cell viability. Format: functional, cell-based.
Data set [3] has as its system Hep 3B2. Description: Antitumor activity against human Hep3B cells xenografted in BALB/c nude mouse assessed as tumor growth inhibition at 100 mg/kg, po relative to control. Format: functional. The conditions noted are these: read-out: TGI. In general terms: A xenograft is tissue or cells of one species grown in another, often human tumour cells in immunodeficient mice.

In data set [4] the target is T1, Fibroblast growth factor receptor 3 (Homo sapiens, UniProt P22607). Kind of data set: Inhibition of N-terminal 6xHis-tagged human FGFR3 (450 to 758 residues) transfected in Escherichia coli Rossetta cells incubated for 30 mins by ADP-Glo assay. A general note: ADP-Glo first removes unused ATP, then detects ADP through luciferase.
T1 sequence (P22607 whole entry, the tested form may be a part): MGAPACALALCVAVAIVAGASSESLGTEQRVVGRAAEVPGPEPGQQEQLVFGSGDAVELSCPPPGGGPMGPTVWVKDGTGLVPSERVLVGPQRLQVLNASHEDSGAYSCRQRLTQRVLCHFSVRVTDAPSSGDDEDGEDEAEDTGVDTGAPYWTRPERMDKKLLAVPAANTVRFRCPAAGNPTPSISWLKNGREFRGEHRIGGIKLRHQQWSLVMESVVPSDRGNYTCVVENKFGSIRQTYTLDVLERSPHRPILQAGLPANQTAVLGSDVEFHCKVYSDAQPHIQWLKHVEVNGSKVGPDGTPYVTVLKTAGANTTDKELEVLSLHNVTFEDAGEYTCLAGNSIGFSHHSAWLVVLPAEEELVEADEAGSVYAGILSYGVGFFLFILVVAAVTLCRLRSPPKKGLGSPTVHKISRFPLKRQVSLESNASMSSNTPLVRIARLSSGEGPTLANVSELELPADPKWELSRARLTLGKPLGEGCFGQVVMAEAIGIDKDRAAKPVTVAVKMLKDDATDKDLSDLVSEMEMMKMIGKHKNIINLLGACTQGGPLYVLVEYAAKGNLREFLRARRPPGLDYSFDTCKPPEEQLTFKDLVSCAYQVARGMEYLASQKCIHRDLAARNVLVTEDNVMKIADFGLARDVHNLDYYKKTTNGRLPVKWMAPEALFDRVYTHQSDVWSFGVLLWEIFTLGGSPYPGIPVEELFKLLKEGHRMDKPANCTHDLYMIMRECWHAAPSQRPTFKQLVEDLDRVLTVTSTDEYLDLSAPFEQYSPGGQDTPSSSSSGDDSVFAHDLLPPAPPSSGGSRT
The target of data set [5] is T2, Fibroblast growth factor receptor 2 (Homo sapiens, UniProt P21802). Description: Inhibition of N-terminal 6xHis-tagged human FGFR2 (453 to 770 residues) transfected in Escherichia coli Rossetta cells incubated for 30 mins by ADP-Glo assay.
T2 sequence (P21802 whole entry, the tested form may be a part): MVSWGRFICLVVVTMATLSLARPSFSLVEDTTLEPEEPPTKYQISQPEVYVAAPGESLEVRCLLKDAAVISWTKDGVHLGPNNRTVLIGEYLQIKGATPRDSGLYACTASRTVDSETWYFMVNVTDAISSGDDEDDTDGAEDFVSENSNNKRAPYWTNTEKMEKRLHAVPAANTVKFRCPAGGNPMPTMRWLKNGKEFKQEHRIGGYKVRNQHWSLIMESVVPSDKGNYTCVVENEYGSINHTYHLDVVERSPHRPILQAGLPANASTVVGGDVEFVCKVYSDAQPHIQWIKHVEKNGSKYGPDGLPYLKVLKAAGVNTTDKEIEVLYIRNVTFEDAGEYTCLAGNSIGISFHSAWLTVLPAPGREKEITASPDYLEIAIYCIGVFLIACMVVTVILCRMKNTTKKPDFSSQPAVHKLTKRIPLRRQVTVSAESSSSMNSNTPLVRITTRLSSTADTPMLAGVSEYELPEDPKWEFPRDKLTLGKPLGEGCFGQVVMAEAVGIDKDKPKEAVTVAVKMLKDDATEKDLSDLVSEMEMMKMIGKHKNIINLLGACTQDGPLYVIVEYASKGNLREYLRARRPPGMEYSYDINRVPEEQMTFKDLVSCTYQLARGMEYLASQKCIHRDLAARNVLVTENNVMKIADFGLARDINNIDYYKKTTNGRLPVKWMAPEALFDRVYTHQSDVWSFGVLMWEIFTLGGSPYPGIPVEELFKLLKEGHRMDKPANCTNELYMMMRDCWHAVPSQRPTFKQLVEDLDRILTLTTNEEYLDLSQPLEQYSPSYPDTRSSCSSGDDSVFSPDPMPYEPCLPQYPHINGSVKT
The target of data set [6] is Fibroblast growth factor receptor 4 (Homo sapiens, UniProt P22455, C477A/C552A). Description: Inhibition of FGFR4 C552A/C477A double mutant (unknown origin).
Fibroblast growth factor receptor 4, sequence (P22455 22-802 C477A/C552A limits assumed): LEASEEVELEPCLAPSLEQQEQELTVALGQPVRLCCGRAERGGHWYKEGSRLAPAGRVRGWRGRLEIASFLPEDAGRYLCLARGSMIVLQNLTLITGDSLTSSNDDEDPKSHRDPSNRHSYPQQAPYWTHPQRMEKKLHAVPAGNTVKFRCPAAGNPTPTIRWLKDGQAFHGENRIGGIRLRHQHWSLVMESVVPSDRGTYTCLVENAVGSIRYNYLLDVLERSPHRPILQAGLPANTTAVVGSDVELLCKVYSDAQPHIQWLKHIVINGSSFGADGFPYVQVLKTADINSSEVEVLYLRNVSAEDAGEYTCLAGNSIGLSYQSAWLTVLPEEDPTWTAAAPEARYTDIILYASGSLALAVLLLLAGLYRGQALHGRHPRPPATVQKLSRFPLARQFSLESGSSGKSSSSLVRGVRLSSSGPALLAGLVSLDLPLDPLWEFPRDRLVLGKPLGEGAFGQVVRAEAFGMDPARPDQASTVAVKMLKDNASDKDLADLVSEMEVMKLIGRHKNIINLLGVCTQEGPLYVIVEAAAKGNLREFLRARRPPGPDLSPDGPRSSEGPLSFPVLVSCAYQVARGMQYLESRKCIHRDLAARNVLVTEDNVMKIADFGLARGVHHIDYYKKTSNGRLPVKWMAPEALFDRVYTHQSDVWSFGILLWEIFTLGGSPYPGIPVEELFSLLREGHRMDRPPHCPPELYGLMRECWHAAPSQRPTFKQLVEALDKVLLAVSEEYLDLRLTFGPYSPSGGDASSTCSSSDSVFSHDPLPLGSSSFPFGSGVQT
Data set [7] deals with T3, Fibroblast growth factor receptor 1 (Homo sapiens, UniProt P11362). Kind of data set: Inhibition of N-terminal 6xHis-tagged human FGFR1 (456 to 765 residues) transfected in Escherichia coli Rossetta cells incubated for 30 mins by ADP-Glo assay.
T3 sequence (P11362 whole entry, the tested form may be a part): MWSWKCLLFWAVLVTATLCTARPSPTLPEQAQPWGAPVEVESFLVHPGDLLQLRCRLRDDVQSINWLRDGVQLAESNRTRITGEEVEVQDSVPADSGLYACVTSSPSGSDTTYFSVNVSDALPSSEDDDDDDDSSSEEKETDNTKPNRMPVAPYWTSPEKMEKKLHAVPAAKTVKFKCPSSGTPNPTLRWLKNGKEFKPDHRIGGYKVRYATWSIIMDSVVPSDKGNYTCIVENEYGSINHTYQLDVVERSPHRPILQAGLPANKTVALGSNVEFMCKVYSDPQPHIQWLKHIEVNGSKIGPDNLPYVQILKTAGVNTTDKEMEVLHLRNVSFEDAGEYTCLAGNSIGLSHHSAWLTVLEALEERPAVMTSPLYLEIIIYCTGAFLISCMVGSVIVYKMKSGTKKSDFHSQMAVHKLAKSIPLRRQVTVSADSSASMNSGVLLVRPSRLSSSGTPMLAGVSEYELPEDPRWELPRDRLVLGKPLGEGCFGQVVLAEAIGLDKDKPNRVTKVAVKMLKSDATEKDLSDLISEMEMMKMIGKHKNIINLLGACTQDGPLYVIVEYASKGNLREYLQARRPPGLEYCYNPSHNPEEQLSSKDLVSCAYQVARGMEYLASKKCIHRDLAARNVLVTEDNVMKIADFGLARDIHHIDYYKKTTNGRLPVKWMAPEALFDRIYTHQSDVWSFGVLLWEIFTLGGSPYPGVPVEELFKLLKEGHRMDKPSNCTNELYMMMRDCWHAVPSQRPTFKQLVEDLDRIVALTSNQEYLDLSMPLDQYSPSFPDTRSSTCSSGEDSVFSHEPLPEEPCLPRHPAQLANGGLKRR
For data set [8], the target named is T2, Fibroblast growth factor receptor 2. Kind of data set: Inhibition of FGFR2 (unknown origin).
The nature of data set [9]: Half life in human. Format: ADME.
In data set [10] the target is T3, Fibroblast growth factor receptor 1. Description: Inhibition of FGFR1 (unknown origin).
Data set [11] deals with T1, Fibroblast growth factor receptor 3. Kind of data set: Inhibition of FGFR3 (unknown origin).
Data set [12] relates to Huh-7. Description: Antiproliferative activity against human Huh-7 cells expressing FGFR3 assessed as reduction in cell viability incubated for 48 hrs by MTT assay. It counts as functional, cell-based. As to conditions: Huh-7, 48 h. Background: Formazan colour is commonly taken as a measure of viable cells.
Data set [13] concerns Huh-7. Kind of data set: Antiproliferative activity against human Huh-7 cells expressing FGFR2 assessed as reduction in cell viability incubated for 48 hrs by MTT assay. It counts as functional, cell-based. As to conditions: Huh-7, 48 h.
Data set [14] addresses T3, Fibroblast growth factor receptor 1. Description: Inhibition of FGFR1 (unknown origin) incubated for 30 mins by ADP-Glo assay.
Data set [15] concerns Hep 3B2. Kind of data set: Antiproliferative activity against human Hep3B cells expressing FGFR3 assessed as reduction in cell viability incubated for 48 hrs by MTT assay. It counts as functional, cell-based.
Data set [16] deals with T1, Fibroblast growth factor receptor 3. Description: Inhibition of FGFR3 (unknown origin) incubated for 30 mins by ADP-Glo assay.
Data set [17] concerns Hep 3B2. Description: Antiproliferative activity against human Hep3B cells expressing FGFR2 assessed as reduction in cell viability incubated for 48 hrs by MTT assay. It counts as functional, cell-based.

SMILES strings stand for the structures.

As for `COc1cc(OC)c(Cl)c(-c2ccc3nc(NCCCNC(=O)/C(C#N)=C/C4CC4)ncc3c2)c1Cl`, the IC50 (in general, the concentration needed to halve the response being measured) with Hep 3B2 [1] was found to be 9000 nM; in the data set on Huh-7 [2], 9200 nM.
As for `C=CC(=O)Nc1cc(N2CCN(CC)CC2)ccc1Nc1cc(N(C)C(=O)Nc2c(Cl)c(OC)cc(OC)c2Cl)ncn1` [H3B-6527], the inhibition in vivo at 100 mg/kg in the data set with Hep 3B2 [3] came out at 109%.
For the molecule `C=CC(=O)Nc1ccccc1Nc1ncc2c(n1)N(CCCN1CCN(C(=O)C=C)CC1)C(=O)N(c1c(Cl)c(OC)cc(OC)c1Cl)C2`, the concentration for half-maximal inhibition (IC50) was 977 nM in [4], 2410 nM in [5], 1530 nM in [6] and 2580 nM in data set [7].
Take `C=CC(=O)N[C@H]1CCOC[C@H]1Nc1ncc2cc(-c3c(Cl)c(OC)cc(OC)c3Cl)ccc2n1` [FISOGATINIB]: the results for the IC50 in data set [8], in [10] and in data set [11] were 493 nM, 591 nM and 150 nM, respectively. In data set [9], the half-life – broadly, how long it takes for the measured level to halve – was approximately 17 h.
In the case of `C=CC(=O)Nc1cc(F)cc(Cl)c1Nc1nc(C)c(OCc2c(F)c(OC)cc(OC)c2F)c(C)n1`, the IC50 was 12600 nM in the data set on Huh-7 [12]; 7100 nM in the data set on Huh-7 [13]; more than 50000 nM in [14]; 4500 nM in the data set with Hep 3B2 [15]; more than 30000 nM in [16]; 900 nM in the data set with Hep 3B2 [17].
